Measured values published in PubChem BioAssay AID2060623 (Molecular Pharmacology Branch, DTP, NCI, 2025).
“And” between values parts separate entries of the source, which are not always exact repeats. Equal values may be shown once.

Test system: 227483-062-R1-J1-PDC complex spheroids with HUVEC/MSC, viability
Experiment: Anticancer human tumor 227483-062-R1-J1-PDC patient-derived pancreatic carcinoma cell line growth inhibition [CLK]
Details: for viability, T/C: stronger effect = lower value
In short: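 Patient-derived tumor cells grown as complex spheroids with HUVEC endothelial cells and mesenchymal stem cells, treated with drug combinations. Concentrations descend in half-log steps from near clinical Cmax, or from 10 microM if Cmax unknown.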

[1] = curve of first compound, second compound 0.0316 µM
[2] = curve of first compound, second compound 0.1 µM
[3] = curve of first compound, second compound 0.316 µM
[4] = curve of first compound, second compound 1 µM
[5] = curve of first compound, second compound 3.16 µM
[6] = curve of first compound, second compound 10 µM
[7] = second compound 0.0316 µM, first compound 0.0316 µM
[8] = second compound 0.0316 µM, first compound 0.1 µM
[9] = second compound 0.0316 µM, first compound 0.316 µM
[10] = second compound 0.0316 µM, first compound 1 µM
[11] = second compound 0.0316 µM, first compound 3.16 µM
[12] = second compound 0.0316 µM, first compound 10 µM
[13] = second compound 0.1 µM, first compound 0.0316 µM
[14] = second compound 0.1 µM, first compound 0.1 µM
[15] = second compound 0.1 µM, first compound 0.316 µM
[16] = second compound 0.1 µM, first compound 1 µM
[17] = second compound 0.1 µM, first compound 3.16 µM
[18] = second compound 0.1 µM, first compound 10 µM
[19] = second compound 0.316 µM, first compound 0.0316 µM
[20] = second compound 0.316 µM, first compound 0.1 µM
[21] = second compound 0.316 µM, first compound 0.316 µM
[22] = second compound 0.316 µM, first compound 1 µM
[23] = second compound 0.316 µM, first compound 3.16 µM
[24] = second compound 0.316 µM, first compound 10 µM
[25] = second compound 1 µM, first compound 0.0316 µM
[26] = second compound 1 µM, first compound 0.1 µM
[27] = second compound 1 µM, first compound 0.316 µM
[28] = second compound 1 µM, first compound 1 µM
[29] = second compound 1 µM, first compound 3.16 µM
[30] = second compound 1 µM, first compound 10 µM
[31] = second compound 3.16 µM, first compound 0.0316 µM
[32] = second compound 3.16 µM, first compound 0.1 µM
[33] = second compound 3.16 µM, first compound 0.316 µM
[34] = second compound 3.16 µM, first compound 1 µM
[35] = second compound 3.16 µM, first compound 3.16 µM
[36] = second compound 3.16 µM, first compound 10 µM
[37] = second compound 10 µM, first compound 0.0316 µM
[38] = second compound 10 µM, first compound 0.1 µM
[39] = second compound 10 µM, first compound 0.316 µM
[40] = second compound 10 µM, first compound 1 µM
[41] = second compound 10 µM, first compound 3.16 µM
[42] = second compound 10 µM, first compound 10 µM
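Note: spheroids exposed to compounds for seven days before readout.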
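Throughout, for viability, T/C: percent of DMSO vehicle control luminescence as 100% viability.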

CC(C)CC(NC(=O)C(Cc1ccccc1)NC(=O)c1cnccn1)B(O)O (stereo not given) + CNC(=O)c1ccc(Nc2nc(OC3CCCC3)c3c(-c4ccc5nc(C)oc5c4)c[nH]c3n2)c(OC)c1
IC50 [1]: 1.53 nM | IC50 [2]: 1.64 nM | IC50 [3]: 1.39 nM | IC50 [4]: < 0.949 nM | IC50 [5]: < 0.949 nM | IC50 [6]: < 0.949 nM | viability, T/C (second compound 0.0316 µM, first compound 0.000949 µM): 84% | viability, T/C (second compound 0.0316 µM, first compound 0.003 µM): 1.62% | viability, T/C (second compound 0.0316 µM, first compound 0.00949 µM): 0.49% | viability, T/C (second compound 0.0316 µM, first compound 0.03 µM): 1.29% | viability, T/C (second compound 0.0316 µM, first compound 0.0949 µM): 0.77% | viability, T/C (second compound 0.0316 µM, first compound 0.3 µM): 1.96% | viability, T/C (second compound 0.1 µM, first compound 0.000949 µM): 94.3% | viability, T/C (second compound 0.1 µM, first compound 0.003 µM): 1.2% | viability, T/C (second compound 0.1 µM, first compound 0.00949 µM): 1.56% | viability, T/C (second compound 0.1 µM, first compound 0.03 µM): 0.47% | viability, T/C (second compound 0.1 µM, first compound 0.0949 µM): 0.71% | viability, T/C (second compound 0.1 µM, first compound 0.3 µM): 0.48% | viability, T/C (second compound 0.316 µM, first compound 0.000949 µM): 74.2% | viability, T/C (second compound 0.316 µM, first compound 0.003 µM): 0.82% | viability, T/C (second compound 0.316 µM, first compound 0.00949 µM): 0.43% | viability, T/C (second compound 0.316 µM, first compound 0.03 µM): 0.97% | viability, T/C (second compound 0.316 µM, first compound 0.0949 µM): 0.43% | viability, T/C (second compound 0.316 µM, first compound 0.3 µM): 0.68% | viability, T/C (second compound 1 µM, first compound 0.000949 µM): 42.7% | viability, T/C (second compound 1 µM, first compound 0.003 µM): 0.52% | viability, T/C (second compound 1 µM, first compound 0.00949 µM): 0.29% | viability, T/C (second compound 1 µM, first compound 0.03 µM): 0.28% | viability, T/C (second compound 1 µM, first compound 0.0949 µM): 1.45% | viability, T/C (second compound 1 µM, first compound 0.3 µM): 0.23% | viability, T/C (second compound 3.16 µM, first compound 0.000949 µM): 26.4% | viability, T/C (second compound 3.16 µM, first compound 0.003 µM): 0.37% | viability, T/C (second compound 3.16 µM, first compound 0.00949 µM): 0.79% | viability, T/C (second compound 3.16 µM, first compound 0.03 µM): 0.21% | viability, T/C (second compound 3.16 µM, first compound 0.0949 µM): 1.01% | viability, T/C (second compound 3.16 µM, first compound 0.3 µM): 0.26% | viability, T/C (second compound 10 µM, first compound 0.000949 µM): 17% | viability, T/C (second compound 10 µM, first compound 0.003 µM): 0.42% | viability, T/C (second compound 10 µM, first compound 0.00949 µM): 0.24% | viability, T/C (second compound 10 µM, first compound 0.03 µM): 0.26% | viability, T/C (second compound 10 µM, first compound 0.0949 µM): 1.09% | viability, T/C (second compound 10 µM, first compound 0.3 µM): 0.3%

C#Cc1c(F)ccc2cc(O)cc(-c3ncc4c(N5CC6CCC(C5)N6)nc(OCC56CCCN5CC(F)C6)nc4c3F)c12 (stereo not given) + CN1CCN(c2cc(C(=O)Nc3cc4cc(-c5cnn(C)c5)ccc4cn3)ccn2)CC1
IC50 [1]: > 10000 nM | IC50 [2]: > 10000 nM | IC50 [3]: < 31.6 nM | IC50 [4]: < 31.6 nM | IC50 [5]: < 31.6 nM | IC50 [6]: < 31.6 nM | viability, T/C [7]: 95.4% | viability, T/C [8]: 97% | viability, T/C [9]: 128% | viability, T/C [10]: 114% | viability, T/C [11]: 108% | viability, T/C [12]: 69.7% | viability, T/C [13]: 66.1% | viability, T/C [14]: 70.6% | viability, T/C [15]: 67.7% | viability, T/C [16]: 81.6% | viability, T/C [17]: 68.8% | viability, T/C [18]: 52.3% | viability, T/C [19]: 5.84% | viability, T/C [20]: 7.37% | viability, T/C [21]: 7.6% | viability, T/C [22]: 7.53% | viability, T/C [23]: 10% | viability, T/C [24]: 6.58% | viability, T/C [25]: 3.51% | viability, T/C [26]: 2.53% | viability, T/C [27]: 1.89% | viability, T/C [28]: 3.48% | viability, T/C [29]: 1.46% | viability, T/C [30]: 1.87% | viability, T/C [31]: 4.16% | viability, T/C [32]: 4.44% | viability, T/C [33]: 3.89% | viability, T/C [34]: 3.43% | viability, T/C [35]: 3.41% | viability, T/C [36]: 2.74% | viability, T/C [37]: 4.25% | viability, T/C [38]: 2.63% | viability, T/C [39]: 2.09% | viability, T/C [40]: 4% | viability, T/C [41]: 1.52% | viability, T/C [42]: 1.15%

CCc1c2c(nc3ccc(O)cc13)-c1cc3c(c(=O)n1C2)COC(=O)[C@]3(O)CC + CN1CCN(c2cc(C(=O)Nc3cc4cc(-c5cnn(C)c5)ccc4cn3)ccn2)CC1
IC50 [1]: 276 nM | IC50 [2]: 12.9 nM | IC50 [3]: < 3.16 nM | IC50 [4]: < 3.16 nM | IC50 [5]: < 3.16 nM | IC50 [6]: < 3.16 nM | viability, T/C (second compound 0.0316 µM, first compound 0.00316 µM): 96.7% | viability, T/C (second compound 0.0316 µM, first compound 0.01 µM): 99% | viability, T/C [7]: 74.9% | viability, T/C [8]: 62% | viability, T/C [9]: 52.1% | viability, T/C [10]: 32.5% | viability, T/C (second compound 0.1 µM, first compound 0.00316 µM): 58.4% | viability, T/C (second compound 0.1 µM, first compound 0.01 µM): 53.1% | viability, T/C [13]: 38.7% | viability, T/C [14]: 38.1% | viability, T/C [15]: 25.4% | viability, T/C [16]: 8.95% | viability, T/C (second compound 0.316 µM, first compound 0.00316 µM): 3.53% | viability, T/C (second compound 0.316 µM, first compound 0.01 µM): 4.77% | viability, T/C [19]: 3.57% | viability, T/C [20]: 4.05% | viability, T/C [21]: 1.85% | viability, T/C [22]: 0.98% | viability, T/C (second compound 1 µM, first compound 0.00316 µM): 1.32% | viability, T/C (second compound 1 µM, first compound 0.01 µM): 1.1% | viability, T/C [25]: 1.61% | viability, T/C [26]: 1.38% | viability, T/C [27]: 2.57% | viability, T/C [28]: 2.01% | viability, T/C (second compound 3.16 µM, first compound 0.00316 µM): 4.99% | viability, T/C (second compound 3.16 µM, first compound 0.01 µM): 2.04% | viability, T/C [31]: 2.02% | viability, T/C [32]: 2.48% | viability, T/C [33]: 5.26% | viability, T/C [34]: 2.04% | viability, T/C (second compound 10 µM, first compound 0.00316 µM): 1.98% | viability, T/C (second compound 10 µM, first compound 0.01 µM): 1.03% | viability, T/C [37]: 0.86% | viability, T/C [38]: 2.28% | viability, T/C [39]: 0.94% | viability, T/C [40]: 0.92%

O=c1[nH]cc(F)c(=O)[nH]1 + CNC(=O)c1ccc(Nc2nc(OC3CCCC3)c3c(-c4ccc5nc(C)oc5c4)c[nH]c3n2)c(OC)c1
IC50 [1]: 1740 nM | IC50 [2]: 1020 nM | IC50 [3]: 931 nM | IC50 [4]: 320 nM | IC50 [5]: < 31.6 nM | IC50 [6]: < 31.6 nM | viability, T/C [7]: 94.6% | viability, T/C [8]: 88.3% | viability, T/C [9]: 108% | viability, T/C [10]: 62.9% | viability, T/C [11]: 41% | viability, T/C [12]: 31.2% | viability, T/C [13]: 104% | viability, T/C [14]: 93.8% | viability, T/C [15]: 73.8% | viability, T/C [16]: 50.1% | viability, T/C [17]: 38.4% | viability, T/C [18]: 36% | viability, T/C [19]: 71.4% | viability, T/C [20]: 91.7% | viability, T/C [21]: 66.5% | viability, T/C [22]: 47.5% | viability, T/C [23]: 37.1% | viability, T/C [24]: 24.5% | viability, T/C [25]: 80.6% | viability, T/C [26]: 56.2% | viability, T/C [27]: 60.5% | viability, T/C [28]: 32.5% | viability, T/C [29]: 22.4% | viability, T/C [30]: 18.7% | viability, T/C [31]: 46.7% | viability, T/C [32]: 46.9% | viability, T/C [33]: 41.2% | viability, T/C [34]: 26.4% | viability, T/C [35]: 18.1% | viability, T/C [36]: 13.8% | viability, T/C [37]: 44.8% | viability, T/C [38]: 39% | viability, T/C [39]: 33.1% | viability, T/C [40]: 23.5% | viability, T/C [41]: 18.9% | viability, T/C [42]: 14.6%

CC1(C)CCC(CN2CCN(c3ccc(C(=O)NS(=O)(=O)c4ccc(NCC5CCOCC5)c([N+](=O)[O-])c4)c(Oc4cnc5[nH]ccc5c4)c3)CC2)=C(c2ccc(Cl)cc2)C1
viability, T/C (compound 0.0316 µM): 92.4% and 103% | viability, T/C (compound 0.1 µM): 112% and 85.4% | viability, T/C (compound 0.316 µM): 95.4% and 94.4% | viability, T/C (compound 1 µM): 107% and 104% | viability, T/C (compound 3.16 µM): 106% and 112% | viability, T/C (compound 10 µM): 13.2% and 9.57% | IC50 (curve of compound): 6220 nM and 5970 nM
